Assay [1] relates to Mus musculus. Nature of the assay: Number of survivors on 60th day at dose 20 mg/kg/day in 10 mice implanted with P388 leukemia cell line; 0/10. It is filed as functional.
In assay [2] the test system is Mus musculus. Nature of the assay: Number of survivors of DBA2 mice on 60th day after inoculation with L1210 leukemia cell line intravenously at a dose of 58 mg/kg/day; 0/10. It is filed as functional. The conditions noted are these: route intravenous.
Assay [3] concerns Mus musculus. Nature of the assay: Number of survivors of DBA2 mice on 30th day after inoculation with L1210 leukemia cell line intravenously at a dose of 45 mg/kg/day; 0/10. The conditions noted are these: route intravenous. The assay is classed as functional.
Assay [4] deals with Mus musculus. Nature of the assay: Number of survivors on 60th day at dose 65 mg/kg/day in 7 mice implanted with P388 leukemia cell line for 1,8,15 scheduled days in Exp-2; 0/10. It is filed as functional.
Assay [5] has as its system Mus musculus. Nature of the assay: Number of survivors on 30th day at dose 65 mg/kg/day in 10 mice implanted with P388 leukemia cell line; 7/9. The assay is classed as functional.
The subject of assay [6] is Mus musculus. Nature of the assay: Number of survivors on 30th day at dose 55 mg/kg/day in 10 mice implanted with P388 leukemia cell line for 1st scheduled day; 1/10. The assay is classed as functional.
For assay [7], the system named is Mus musculus. Nature of the assay: Percent increase in life span at dose 55 mg/kg/day in 10 mice implanted with P388 leukemia cell line for 1st schedule day. It is filed as functional.
Assay [8] relates to Mus musculus. Nature of the assay: Number of survivors on 60th day at dose 50 mg/kg/day in 10 mice implanted with P388 leukemia cell line; 5/10. The assay is classed as functional.
For assay [9], the system named is Mus musculus. Nature of the assay: Number of survivors of DBA2 mice on 60th day after inoculation with L1210 leukemia cell line intravenously at a dose of 55 mg/kg/day; 0/10. The assay is classed as functional. The conditions noted are these: route intravenous.
Assay [10] deals with Mus musculus. Nature of the assay: Number of survivors on 60th day at dose 55 mg/kg/day in 10 mice implanted with P388 leukemia cell line for 1,5,9 scheduled days; 1/10. It is filed as functional.
Assay [11] has as its system Mus musculus. Nature of the assay: Number of survivors on 30th day at dose 50 mg/kg/day in 10 mice implanted with P388 leukemia cell line; 7/10. It is filed as functional.
Assay [12] has as its system Mus musculus. Nature of the assay: Number of survivors of DBA2 mice on 30th day after inoculation with L1210 leukemia cell line intravenously at a dose of 60 mg/kg/day; 0/10. It is filed as functional. The conditions noted are these: route intravenous.
The subject of assay [13] is Mus musculus. Nature of the assay: Number of survivors on 60th day at dose 10 mg/kg/day in 7 mice implanted with P388 leukemia cell line for 1,8.15 scheduled days; 0/10. It is filed as functional.
In assay [14] the test system is Mus musculus. Nature of the assay: Percent increase in life span at dose 6 mg/kg/day in 10 mice implanted with P388 leukemia cell line for 1st schedule day. It is filed as functional.
Assay [15] relates to Mus musculus. Nature of the assay: Number of survivors on 60th day at dose 6 mg/kg/day in 7 mice implanted with P388 leukemia cell line for 1,8.15 scheduled days from Exp-1; 0/10. The assay is classed as functional.
The subject of assay [16] is Mus musculus. Nature of the assay: Percent increase in life span of DBA2 mice after inoculation with L1210 leukemia intravenously at a dose of 10 mg/kg per day. The assay is classed as functional. The conditions noted are these: route intravenous.
For assay [17], the system named is Mus musculus. Nature of the assay: Number of survivors of DBA2 mice on 30th day after inoculation with L1210 leukemia cell line intravenously at a dose of 10 mg/kg/day; 0/10. The assay is classed as functional. The conditions noted are these: route intravenous.
Assay [18] has as its system Mus musculus. Nature of the assay: Number of survivors on 60th day at dose 8 mg/kg/day in 7 mice implanted with P388 leukemia cell line for 1,8.15 scheduled days from Exp-2; 0/10. The assay is classed as functional.
Assay [19] relates to Mus musculus. Nature of the assay: Percent increase in life span at dose 6 mg/kg/day in 7 mice implanted with P388 leukemia cell line for 1,8,15 schedule days from Exp-2. The assay is classed as functional.
Assay [20] concerns Mus musculus. Nature of the assay: Percent increase in life span at dose 8 mg/kg/day in 7 mice implanted with P388 leukemia cell line for 1,8,15 schedule days from Exp-1. It is filed as functional.
Assay [21] relates to Mus musculus. Nature of the assay: Number of survivors of DBA2 mice on 60th day after inoculation with L1210 leukemia cell line intraperitoneally at a dose of 4 mg/kg/day; 0/10. The assay is classed as functional. The conditions noted are these: route intraperitoneal.
The test system of assay [22] is Mus musculus. Nature of the assay: Percent increase in life span at dose 4 mg/kg/day in 7 mice implanted with P388 leukemia cell line for 1,8,15 scheduled day from Exp-1. It is filed as functional.
Assay [23] relates to Mus musculus. Nature of the assay: Number of survivors of DBA2 mice on 60th day after inoculation with L1210 leukemia cell line intraperitoneally at a dose of 0.33 mg/kg/day; 0/10. The conditions noted are these: route intraperitoneal. The assay is classed as functional.
Assay [24] concerns Mus musculus. Nature of the assay: Number of survivors on 30th day at dose 5 mg/kg/day in 10 mice implanted with P388 leukemia cell line; 0 /10. It is filed as functional.
In assay [25] the test system is Mus musculus. Nature of the assay: Number of survivors on 60th day at dose 4 mg/kg/day in 7 mice implanted with P388 leukemia cell line for 1,8,15 acheduled days form Exp-1; 0/10. It is filed as functional.
The test system of assay [26] is Mus musculus. Nature of the assay: Number of survivors on 60th day at dose 8 mg/kg/day in 9 mice implanted with P388 leukemia cell line; 0/9. It is filed as functional.
For assay [27], the system named is Mus musculus. Nature of the assay: Percent increase in life span of BDF1 mice after inoculation with P388 leukemia cells intraperitoneally at a dose of 0.33 mg/kg per day for 1-9 scheduled days. The conditions noted are these: P388, ip.
Assay [28] has as its system Mus musculus. Nature of the assay: Percent increase in life span at dose 1.5 mg/kg/day in 10 mice implanted with P388 leukemia cell line. The assay is classed as functional.
Assay [29] deals with Mus musculus. Nature of the assay: Number of survivors of DBA2 mice on 30th day after inoculation with L1210 leukemia cell line intravenously at a dose of 2.5 mg/kg/day; 0/10. The conditions noted are these: route intravenous. It is filed as functional.
Assay [30] relates to Mus musculus. Nature of the assay: Number of survivors of DBA2 mice on 30th day after inoculation with L1210 leukemia cell line intravenously at a dose of 0.5 mg/kg/day; 0/10. The conditions noted are these: route intravenous. It is filed as functional.
In assay [31] the test system is Mus musculus. Nature of the assay: Number of survivors of DBA2 mice on 30th day after inoculation with L1210 leukemia cell line intravenously at a dose of 1 mg/kg/day; 0/10. The assay is classed as functional. The conditions noted are these: route intravenous.
For assay [32], the system named is Mus musculus. Nature of the assay: Number of survivors of BDF1 mice on 30th day after inoculation with P388 leukemia cell line intraperitoneally at a dose of 2.7 mg/kg/day; 0/11. The conditions noted are these: route intraperitoneal.
For assay [33], the system named is Mus musculus. Nature of the assay: Number of survivors of DBA2 mice on 60th day after inoculation with L1210 leukemia cell line intravenously at a dose of 5.5 mg/kg/day; 0/10. It is filed as functional. The conditions noted are these: route intravenous.
Assay [34] concerns Mus musculus. Nature of the assay: Percent increase in life span of DBA2 mice after inoculation with L1210 leukemia intravenously at a dose of 6.5 mg/kg per day. The conditions noted are these: route intravenous. The assay is classed as functional.
In assay [35] the test system is Mus musculus. Nature of the assay: Number of survivors of DBA2 mice on 60th day after inoculation with L1210 leukemia cell line intravenously at a dose of 1 mg/kg/day; 0/10. The assay is classed as functional. The conditions noted are these: route intravenous.
Assay [36] concerns Mus musculus. Nature of the assay: Number of survivors on 60th day at dose 2.5 mg/kg/day in 10 mice implanted with P388 leukemia cell line for 1st scheduled day; 0/10. The assay is classed as functional.
In assay [37] the test system is Mus musculus. Nature of the assay: Percent increase in life span at dose 2.5 mg/kg/day in 7 mice implanted with P388 leukemia cell line for 1,8,15 scheduled days from Exp-2. The assay is classed as functional.
The test system of assay [38] is Mus musculus. Nature of the assay: Percent increase in life span at dose 2.5 mg/kg/day in 10 mice implanted with P388 leukemia cell line. It is filed as functional.
Assay [39] relates to Mus musculus. Nature of the assay: Percent increase in life span at dose 2 mg/kg/day in 7 mice implanted with P388 leukemia cell line for 1,8,15 scheduled days. The assay is classed as functional.
Assay [40] concerns Mus musculus. Nature of the assay: Number of survivors on 30th day at dose 7 mg/kg/day in 10 mice implanted with P388 leukemia cell line; 0/10. The assay is classed as functional.

SMILES strings stand for the structures.

For the molecule `CCOC(=O)[C@H](Cc1c[nH]c2ccccc12)NC(=O)[C@@]1(O)[C@H](O)[C@]2(CC)C=CCN3CC[C@@]4(c5cc([C@@]6(C(=O)OC)C[C@H]7C[N@](CCc8c6[nH]c6ccccc86)C[C@](O)(CC)C7)c(OC)cc5N(C)[C@@]14C)[C@@H]32`, the Survivors is on record as 0 in assay [1]; 0 in [2]; 0 in assay [3]; 0 in [4]; 7 in assay [5]; 1 in assay [6]. The Survivors in assay [8] came to 5; in assay [9] it was 0; in [10], 1; in assay [11], 7; in [12] it was 0. The ILS at 55 mg/kg/day in [7] is above 261%.
For `CCOC(=O)[C@@H](NC(=O)[C@@]1(O)[C@H](O)[C@]2(CC)C=CCN3CC[C@@]4(c5cc([C@@]6(C(=O)OC)C[C@H]7C[N@](CCc8c6[nH]c6ccccc86)C[C@](O)(CC)C7)c(OC)cc5N(C)[C@@]14C)[C@@H]32)[C@@H](C)CC`, the Survivors in [13], in assay [15], in assay [17] and in [18] was 0 each time. Moreover, the results for the ILS at 6 mg/kg/day in assay [14] and in assay [19] were 74% and 200%, respectively. The ILS at 10 mg/kg/day in assay [16] came to 27%. Besides, the ILS at 8 mg/kg/day in [20] turned out to be 119%.
As for `CC[C@]1(O)C[C@@H]2CN(CCc3c([nH]c4ccccc34)[C@@](C(=O)OC)(c3cc4c(cc3OC)N(C)[C@H]3[C@@](O)(C(=O)OC)[C@H](OC(C)=O)[C@]5(CC)C=CCN6CC[C@]43[C@@H]65)C2)C1` [VINBLASTINE], the Survivors in assay [21], in [23], in assay [24], in assay [25] and in [26] was 0 each time. Further, in assay [22], the ILS at 4 mg/kg/day amounted to 58%. Further, the ILS at 0.33 mg/kg/day in assay [27] was 74%.
For the molecule `CC[C@]1(O)C[C@H]2CN(CCc3c([nH]c4ccccc34)[C@@](C(=O)OC)(c3cc4c(cc3OC)N(C=O)[C@H]3[C@@](O)(C(=O)OC)[C@H](OC(C)=O)[C@]5(CC)C=CCN6CC[C@]43[C@@H]65)C2)C1` [VINCRISTINE], the ILS at 1.5 mg/kg/day in assay [28] came out at 20.8%. Besides, the Survivors in assay [29], in assay [30], in assay [31], in assay [32], in assay [33] and in assay [35] was 0 in each case. The ILS at 6.5 mg/kg/day in assay [34] was -37%.
With `CC[C@]1(O)C[C@@H]2CN(CCc3c([nH]c4ccccc34)[C@@](C(=O)OC)(c3cc4c(cc3OC)N(C)[C@H]3[C@@](O)(C(N)=O)[C@H](O)[C@]5(CC)C=CCN6CC[C@]43[C@@H]65)C2)C1` [VINDESINE], the Survivors in assay [36] and in assay [40] was 0 each time. For the same molecule, the ILS at 2.5 mg/kg/day in assay [37] stood at 13%; in assay [38] it was 19%. Further, the ILS at 2 mg/kg/day in assay [39] came out at 31%.

The record behind these values is ChEMBL document CHEMBL1122917, “Vinblastin-23-oyl amino acid derivatives: chemistry, physicochemical data, toxicity, and antitumor activities against P388 and L1210 leukemias” (J Med Chem, 1985).
